Measured values published in patent US20160304556A1, “[…] ACTIVE COMPOUNDS AND THEIR METHODS OF USE” (AGIOS PHARMACEUTICALS, INC, priority 2012, published 2016).

What was measured:
[1] = biological target: IDH1 R132H (Homo sapiens, UniProt O75874, R132H); assay: In vitro NADPH depletion assay for IDH1m R132H inhibitors; type: biochemical; details: enzyme, diaphorase/resazurin readout, read-out: IDH R132H IC50
Method: (§1) A test compound is prepared as 10 mM stock in DMSO and diluted to 50× final concentration in DMSO, for a 50 μl reaction mixture. IDH enzyme activity converting alpha-ketoglutarate to 2-hydroxyglutaric acid is measured using a NADPH depletion assay. In the assay the remaining cofactor is measured at the end of the reaction with the addition of a catalytic excess of diaphorase and resazurin, to generate a fluorescent signal in proportion to the amount of NADPH remaining. IDH1-R132 homodimer enzyme is diluted to […] in 40 μl of Assay Buffer(150 mM NaCl, 20 mM Tris-Cl pH 7.5, 10 mM MgCl2, 0.05% BSA, 2 mM b-mercaptoethanol); 1 μl of test compound dilution in DMSO is added and the mixture is incubated for 60 minutes at room temperature. The reaction is started with the addition of 10 μl of Substrate Mix ([…], 5 mM alpha-ketoglutarate, in Assay Buffer) and the mixture is incubated for 90 minutes at room temperature. The reaction is terminated with the addition of 25 μl of Detection Buffer (36 μg/ml diaphorase, […], in 1× Assay Buffer), and is incubated for 1 minute before reading on a SpectraMax platereader at Ex544/Em590.
(§2) Representative compounds of formula I set forth in Table 1 were tested in this assay and the results are set forth below in Table 3.

[2] = biological target: IDH1 R132C (Homo sapiens, UniProt O75874, R132C); assay: In vitro NADPH depletion assay for IDH1m R132C inhibitors; type: biochemical; details: enzyme, diaphorase/resazurin readout, read-out: IDH R132C IC50
Chain of IDH1 R132C (O75874 whole entry R132C): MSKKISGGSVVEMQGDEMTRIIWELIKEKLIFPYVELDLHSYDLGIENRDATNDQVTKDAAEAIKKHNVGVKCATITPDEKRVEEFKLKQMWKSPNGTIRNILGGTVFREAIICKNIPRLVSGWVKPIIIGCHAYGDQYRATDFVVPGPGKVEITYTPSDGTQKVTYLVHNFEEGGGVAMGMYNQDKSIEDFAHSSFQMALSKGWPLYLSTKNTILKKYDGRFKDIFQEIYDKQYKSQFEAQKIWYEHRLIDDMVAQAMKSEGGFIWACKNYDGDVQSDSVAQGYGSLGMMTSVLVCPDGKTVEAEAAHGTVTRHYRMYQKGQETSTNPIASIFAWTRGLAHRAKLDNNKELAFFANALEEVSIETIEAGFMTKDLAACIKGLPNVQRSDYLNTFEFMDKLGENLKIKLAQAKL
Method: as §1
Compounds are assayed for their activity against IDH1 R132C following the same assay as above with the following modifications: Assay Buffer is (50 mM potassium phosphate, pH 6.5; 40 mM sodium carbonate, 5 mM MgCl2, 10% glycerol, 2 mM b-mercaptoethanol, and 0.03% BSA). The concentration of NADPH and alpha-ketoglutarate in the Substrate Buffer is 20 μM and 1 mM, respectively.
as §2

[3] = system: HT1080 cells; assay: Cellular assay, inhibition of 2-HG production (LC-MS) in HT1080 cells; type: cell-based; details: Homo sapiens, HT-1080, 48 hours, LC-MS of media
Method: Cells (HT1080 or U87MG) are grown in T125 flasks in DMEM containing 10% FBS, 1× penicillin/streptomycin and 500 ug/mL G418 (present in U87MG cells only). They are harvested by trypsin and seeded into 96 well white bottom plates at a density of 5000 cell/well in 100 μl/well in DMEM with 10% FBS. No cells are placed in columns 1 and 12. Cells are incubated overnight at 37° C. in 5% CO2. The next day test compounds are made up at 2× the final concentration and 100 μl are added to each cell well. The final concentration of DMSO is 0.2% and the DMSO control wells are plated in row G. The plates are then placed in the incubator for 48 hours. At 48 hours, 100 μl of media is removed from each well and analyzed by LC-MS for 2-HG concentrations. The cell plate is placed back in the incubator for another 24 hours. At 72 hours post compound addition, 10 mL/plate of Promega Cell Titer Glo reagent is thawed and mixed. The cell plate is removed from the incubator and allowed to equilibrate to room temperature. Then 100 μl of Promega Cell Titer Glo reagent is added to each well of media. The cell plate is then placed on an orbital shaker for 10 minutes and then allowed to sit at room temperature for 20 minutes. The plate is then read for luminescence with an integration time of 500 ms.
The IC50 for inhibition of 2-HG production (concentration of test compound to reduce 2HG production by 50% compared to control) in these two cell lines for various compounds of formula I is set forth in Table 2 above.

Chain of IDH1 R132H (O75874 whole entry R132H): as the sequence (O75874 whole entry R132C) above, with C132H counted along it

SMILES	IC50 [1]	IC50 [2]	IC50 [3]
O=C(NC1CC(F)(F)C1)C(c1ccccc1Cl)N(C(=O)Cn1ccnc1CO)c1cccc(F)c1 (centres unmarked) [Compound 72]	100 to 500 nM	500 to 1000 nM	
COC(=O)NCC(=O)N(c1cccc(F)c1)[C@H](C(=O)N[C@H]1CCCC(F)(F)C1)c1ccccc1Cl (single isomer, unassigned) [Compound 94, methyl 2-((1-(2-chlorophenyl)-2-(3,3-difluorocyclohexylamino)-2-oxoethyl) (3-fluoro-phenyl)amino)-2-oxoethylcarbamate]	100 to 500 nM	100 to 500 nM	
COC(=O)NCC(=O)N(c1cccc(F)c1)[C@H](C(=O)N[C@@H]1CCCC(F)(F)C1)c1ccccc1Cl (single isomer, unassigned) [Compound 95, methyl 2-((1-(2-chlorophenyl)-2-(3,3-difluorocyclohexylamino)-2-oxoethyl) (3-fluoro-phenyl)amino)-2-oxoethylcarbamate]	100 to 500 nM	100 to 500 nM	
O=C(NC1CCC(F)(F)CC1)C(c1ccccc1Cl)N(C(=O)Cn1cnnn1)c1cccc(F)c1 (centres unmarked) [Compound 49]	100 to 500 nM	100 to 500 nM	
COC(=O)NCC(=O)N(c1cccc(F)c1)C(C(=O)NC1CC(F)(F)C1)c1c(F)cccc1Cl (centres unmarked) [Compound 77]	100 to 500 nM	500 to 1000 nM	
COC(=O)N1CCN(C)C[C@H]1C(=O)N(c1cccc(F)c1)[C@H](C(=O)NC1CC(F)(F)C1)c1ccccc1Cl [Compound 80, (S)-Methyl 2-(((S)-1-(2-chlorophenyl)-2-(3,3-difluorocyclobutylamino)-2-oxoethyl)-(3-fluorophenyl)carbamoyl)-4-methylpiperazine-1-carboxylate]	100 to 500 nM	100 to 500 nM	
COC(=O)N1C[C@H](N)C[C@H]1C(=O)N(c1cccc(F)c1)[C@H](C(=O)NC1CC(F)(F)C1)c1ccccc1Cl [Compound 65]	100 to 500 nM	500 to 1000 nM	
COC(=O)NCC(=O)N(c1cccc(F)c1)C(C(=O)NC1CC(F)(F)C1)c1c(Cl)cccc1Cl (centres unmarked) [Compound 76]	100 to 500 nM	100 to 500 nM	
O=C(NC1CC(F)(F)C1)[C@H](c1ccccc1Cl)N(C(=O)[C@@H]1CCN1c1ncccn1)c1cccc(F)c1 [Compound 103]	1000 to 2000 nM	500 to 1000 nM	
COC(=O)N1C[C@H](OCCN(C)C)C[C@H]1C(=O)N(c1cccc(F)c1)[C@H](C(=O)NC1CC(F)(F)C1)c1ccccc1Cl [Compound 104]	500 to 1000 nM	1000 to 2000 nM	
COC(=O)N1C[C@H](F)C[C@H]1C(=O)N(c1cccc(F)c1)[C@H](C(=O)NC1CC(F)(F)C1)c1ccccc1Cl [Compound 55, (2S,4R)-methyl 2-(((S)-1-(2-chlorophenyl)-2-((3,3-difluorocyclo-butyl)amino)-2-oxoethyl)(3-fluorophenyl)carbamoyl)-4-fluoropyrrolidine-1-carboxylate]	≤ 100 nM		500 to 1000 nM
COC(=O)N(C)[C@@H](C)C(=O)N(c1cccc(F)c1)[C@H](C(=O)NC1CCCCC1)c1ccccc1C [Compound 5]	≤ 100 nM		500 to 1000 nM
Cc1nccn1CC(=O)N(c1cccc2[nH]ncc12)C(C(=O)NC1CCCCC1)c1ccccc1Cl (centres unmarked) [Compound 26]	100 to 500 nM		1000 to 2000 nM
COC(=O)N1C[C@@H](OC)C[C@H]1C(=O)N(c1cccc(F)c1)[C@H](C(=O)NC1CC(F)(F)C1)c1ccccc1Cl [Compound 63]	≤ 100 nM		1000 to 2000 nM
COC(=O)N1CCOC[C@H]1C(=O)N(c1cccc(F)c1)[C@H](C(=O)NC1CCCCC1)c1ccccc1C [Compound 23]		≤ 100 nM	≤ 100 nM
COC(=O)N[C@@H](CO)C(=O)N(c1cccc(F)c1)C(C(=O)NC1CC(F)(F)C1)c1ccccc1Cl (some centres unmarked) [Compound 56]	100 to 500 nM	500 to 1000 nM	

SMILES	IC50 [1]	IC50 [2]	IC50 [3]
COC(=O)N1CCOC[C@H]1C(=O)N(c1cccc(F)c1)[C@H](C(=O)NC1CC(F)(F)C1)c1ccccc1Cl [Compound 53]	≤ 100 nM		100 to 500 nM
N#Cc1ncn(CC(=O)N(c2cccc(F)c2)C(C(=O)NC2CCCCC2)c2ccccc2Cl)c1C#N (centres unmarked) [Compound 22]	100 to 500 nM		500 to 1000 nM
COC(=O)N1C[C@@H](O)C[C@H]1C(=O)N(c1cccc(F)c1)[C@H](C(=O)NC1CC(F)(F)C1)c1ccccc1Cl [Compound 52]	≤ 100 nM		500 to 1000 nM
O=C(NC1CC(F)(F)C1)C(c1ccccc1Cl)N(C(=O)Cn1cncn1)c1cccc(F)c1 (centres unmarked) [Compound 36]	100 to 500 nM	1000 to 2000 nM	
COC(=O)N1C[C@@H](N)C[C@H]1C(=O)N(c1cccc(F)c1)[C@H](C(=O)NC1CC(F)(F)C1)c1ccccc1Cl [Compound 89]	100 to 500 nM	500 to 1000 nM	
Cc1ccccc1C(C(=O)NC1CCC(F)(F)CC1)N(C(=O)Cn1ccnc1C(F)(F)F)c1cccc(F)c1 (centres unmarked) [Compound 11]	100 to 500 nM		500 to 1000 nM
COC(=O)N1CCN(C(C)=O)C[C@H]1C(=O)N(c1cccc(F)c1)[C@@H](C(=O)NC1CC(F)(F)C1)c1ccccc1Cl [Compound 67, (S)-Methyl 4-acetyl-2-(((R)-1-(2-chlorophenyl)-2-(3,3-difluorocyclobutylamino)-2-oxoethyl)(3-fluorophenyl)carbamoyl)piperazine-1-carboxylate]	100 to 500 nM	100 to 500 nM	
COC(=O)NCC(=O)N(c1cccc(F)c1)C(C(=O)NC1CC(F)(F)C1)c1c(F)cccc1F (centres unmarked) [Compound 78]	500 to 1000 nM	1000 to 2000 nM	
COC(=O)N1CCNC[C@H]1C(=O)N(c1cccc(F)c1)[C@H](C(=O)NC1CC(F)(F)C1)c1ccccc1Cl [Compound 62, (S)-Methyl 2-(((S)-1-(2-chlorophenyl)-2-(3,3-difluorocyclobutylamino)-2-oxoethyl) -(3-fluoro-phenyl)carbamoyl)piperazine-1-carboxylate]	100 to 500 nM		1000 to 2000 nM
Cc1ccccc1C(C(=O)NC1CC(F)(F)C1)N(C(=O)CNc1ncccc1F)c1cccc(F)c1 (centres unmarked) [Compound 17]	100 to 500 nM		100 to 500 nM
COC(=O)N[C@H](C(=O)N(c1cccc(F)c1)C(C(=O)NC1CC(F)(F)C1)c1ccccc1Cl)[C@@H](C)O (some centres unmarked) [Compound 99]	500 to 1000 nM	500 to 1000 nM	
Cc1nccn1CC(=O)N(c1cccc(-c2nnco2)c1)C(C(=O)NC1CCCCC1)c1ccccc1Cl (centres unmarked) [Compound 25, N-(3-(1,3,4-oxadiazol-2-yl)phenyl)-N-(1-(2-chlorophenyl)-2-(cyclohexylamino)-2-oxoethyl)-2-(2-methyl-1H-imidazol-1-yl)acetamide]	100 to 500 nM		1000 to 2000 nM
N#Cc1ccnc(N2c3ccccc3C[C@H]2C(=O)N(c2cc(F)cc(F)c2)C(C(=O)NC2CC(F)(F)C2)c2ccccc2Cl)c1 (stereo partly drawn) [Compound 119, (2S)—N-(1-(2-chlorophenyl)-2-((3,3-difluorocyclobutyl)amino)-2-oxoethyl)-1-(4-cyanopyridin-2-yl)-N-(3,5-difluorophenyl)indoline-2-carboxamide]	100 to 500 nM		100 to 500 nM
O=C(NC1CC(F)(F)C1)C(c1ccccc1Cl)N(C(=O)c1ccnn1-c1ncccn1)c1cccc(F)c1 (centres unmarked) [Compound 116, N-(1-(2-chlorophenyl)-2-((3,3-difluorocyclobutyl)amino)-2-oxoethyl)-N-(3-fluorophenyl)-1-(pyrimidin-2-yl)-1H-pyrazole-5-carboxamide]	500 to 1000 nM	100 to 500 nM	
COC(=O)N1C[C@H](O)C[C@H]1C(=O)N(c1cccc(F)c1)[C@H](C(=O)NC1CC(F)(F)C1)c1ccccc1Cl [Compound 51]	≤ 100 nM		500 to 1000 nM
